Experimental data taken from the NIST ThermoML archive (doi:10.1016/j.fluid.2012.11.003).
± gives the expanded uncertainty stated by the source.

Tests used:
[1] = excess molar enthalpy (molar enthalpy of mixing); xn = mol fraction of the nth substance listed; details: 353.15 K, 101 kPa, Liquid, Flow calorimetry
[2] = activity coefficient (dimensionless); of the first substance listed, at infinite dilution; xn = mol fraction of the nth substance listed; details: 101 kPa, Liquid, dilutor technique, x1 = 0

CCn1cc[n+](C)c1.COS(=O)(=O)[O-] [1-ethyl-3-methylimidazolium methylsulfate] + CCO
[1]
Details	excess molar enthalpy [kcal/mol]
x2 = 0.0977	0.033 ± 0.000789
x2 = 0.1834	0.0608 ± 0.00136
x2 = 0.249	0.0835 ± 0.00184
x2 = 0.3794	0.134 ± 0.00287
x2 = 0.5247	0.185 ± 0.00406
x2 = 0.6059	0.206 ± 0.00454
x2 = 0.701	0.218 ± 0.00478
x2 = 0.7779	0.209 ± 0.00454
x2 = 0.8414	0.183 ± 0.00406
x2 = 0.8947	0.14 ± 0.00311
x2 = 0.9358	0.091 ± 0.00198
x2 = 0.9754	0.0381 ± 0.000884

CCCCO [butan-1-ol] + CCn1cc[n+](C)c1.COS(=O)(=O)[O-]
[2]
Details	activity coefficient
323.15 K	2.62 ± 0.23
333.15 K	2.4 ± 0.21
343.15 K	2.05 ± 0.18
353.15 K	1.74 ± 0.12

CCCO [propan-1-ol] + CCOS(=O)(=O)[O-].CCn1cc[n+](C)c1
[2]
Details	activity coefficient
303.15 K	1.31 ± 0.087
313.15 K	1.2 ± 0.078
323.15 K	1.03 ± 0.064
333.15 K	0.914 ± 0.058
343.15 K	0.855 ± 0.055
353.15 K	0.803 ± 0.054

CCCCO [butan-1-ol] + CCOS(=O)(=O)[O-].CCn1cc[n+](C)c1
[2]
Details	activity coefficient
313.15 K	1.93 ± 0.14
323.15 K	1.65 ± 0.12
333.15 K	1.39 ± 0.093
343.15 K	1.37 ± 0.092
353.15 K	1.19 ± 0.077

CCO [ethanol] + CCn1cc[n+](C)c1.COS(=O)(=O)[O-]
[2]
Details	activity coefficient
323.15 K	0.449 ± 0.042
333.15 K	0.398 ± 0.041
343.15 K	0.349 ± 0.039
353.15 K	0.303 ± 0.039

CCCO [propan-1-ol] + CCn1cc[n+](C)c1.O=S(=O)([O-])O
[2]
Details	activity coefficient
323.15 K	0.431 ± 0.041
333.15 K	0.338 ± 0.039
343.15 K	0.233 ± 0.039
353.15 K	0.196 ± 0.039

CCOS(=O)(=O)[O-].CCn1cc[n+](C)c1 [1-ethyl-3-methylimidazolium ethyl sulfate] + CCO
[1]
Details	excess molar enthalpy [kcal/mol]
x2 = 0.0627	0.0259 ± 0.000645
x2 = 0.1063	0.0446 ± 0.00103
x2 = 0.1471	0.0636 ± 0.00141
x2 = 0.1979	0.0845 ± 0.00186
x2 = 0.267	0.109 ± 0.00239
x2 = 0.3288	0.137 ± 0.00287
x2 = 0.4017	0.167 ± 0.00359
x2 = 0.4504	0.181 ± 0.00382
x2 = 0.548	0.206 ± 0.00454
x2 = 0.6281	0.219 ± 0.00478
x2 = 0.7203	0.219 ± 0.00478
x2 = 0.7937	0.205 ± 0.0043
x2 = 0.8535	0.174 ± 0.00382
x2 = 0.9032	0.13 ± 0.00287
x2 = 0.9412	0.0823 ± 0.00182
x2 = 0.9776	0.0327 ± 0.000765

CC(C)O [propan-2-ol] + CCn1cc[n+](C)c1.COS(=O)(=O)[O-]
[2]
Details	activity coefficient
323.15 K	1.33 ± 0.089
333.15 K	1.17 ± 0.075
343.15 K	1.01 ± 0.062
353.15 K	0.84 ± 0.055

CO [methanol] + CCn1cc[n+](C)c1.COS(=O)(=O)[O-]
[2]
Details	activity coefficient
323.15 K	0.257 ± 0.039
333.15 K	0.203 ± 0.039
343.15 K	0.178 ± 0.039
353.15 K	0.105 ± 0.039
